Earlier results on 1 compound are cited in patent US20130230592A1, “NOVEL OMEGA-3 AND OMEGA-6 FATTY ACID COMPOSITIONS AND USES THEREOF” (priority 2010, published 2013).

The conditions of the data set: after oral intake of 750 mg EPA.

In the case of `CCC=CCC=CCC=CCC=CCC=CCCCC(=O)O` [EPA, eicosa-5,8,11,14,17-pentaenoic acid], the plasma level result is reported as “about 417 μmol/L”.
